Source: ChEMBL document CHEMBL1201862, “PubChem BioAssay data set” (2004)
The source made the active and inactive calls.

Assays:
[1] = target: Mannose-6-phosphate isomerase (Homo sapiens, UniProt P34949); assay: MPI inhibition at elevated mannose 6-phosphate – biochemical, fluorescence intensity, high mannose 6-phosphate, primary screen (AID 1220)
[2] = viability loss in THP-1 monocytes – THP-1 cells, cytotoxicity control for Vif-APOBEC3G degradation inhibitor project, dose response (AID 1117359); format: functional; details: THP-1
[3] = target: Glutathione-S-transferase (Schistosoma japonicum, UniProt Q26513); assay: GST-antibody interaction or FRET quenching – biochemical, TR-FRET, artefact control for Vif-APOBEC3G degradation inhibitor project, dose response (AID 1117362); format: functional
[4] = Dd2 parasite growth inhibition in erythrocytes – SYBR Green, dry powder samples, set 9, dose response (AID 1159568); format: functional, cell-based
[5] = reduction of Shn3 3'UTR-driven luciferase in osteoblasts – cell-based, Clone20 osteoblasts, firefly luciferase, cherry-picked, dose response (AID 624132); format: functional;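 further: firefly luciferase luminescence from reporter carrying the Shn3 3'UTR in osteoblasts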
[6] = loss of viability in HepG2 cells – cell-based, CellTiter-Glo, cherry-picked, cytotoxicity control for Shn3 inhibitor project, dose response (AID 624134); format: functional
[7] = non-specific 3'UTR reporter inhibition in Clone20-Shn3RL – cell-based, Renilla luciferase, cherry-picked, counter-screen for Shn3 inhibitor project, dose response (AID 624133); format: functional
Protein Wnt-3a = Protein Wnt-3a (Mus musculus, UniProt P27467); assay: antagonism of Wnt3a pathway luciferase reporter – Wnt-LIGHT cells, luminescence, selectivity assay for Gli-SUFU antagonist project, dose response (AID 651570); format: functional; details: read-out: IC50_Mean;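 further: Wnt-LIGHT reporter cells stimulated with conditioned medium from Wnt3a-producing cells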
[8] = Shn3 3'UTR reporter signal decrease – cell-based, Clone20 osteoblasts, firefly luciferase, cherry-pick, set 2, Schnurri-3 inhibitor project, dose response (AID 720490); format: functional;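 further: actives lower the luminescence signal as inhibitors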
cells [9] = format: functional, cell-based
[10] = target: T1, Nuclear receptor subfamily 0 group B member 1 (Homo sapiens, UniProt P51843); format: functional, cell-based;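 further: HEK293T cells transfected with SF-1 and DAX-1 plus StAR promoter luciferase reporter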
T1 sequence (P51843 whole entry): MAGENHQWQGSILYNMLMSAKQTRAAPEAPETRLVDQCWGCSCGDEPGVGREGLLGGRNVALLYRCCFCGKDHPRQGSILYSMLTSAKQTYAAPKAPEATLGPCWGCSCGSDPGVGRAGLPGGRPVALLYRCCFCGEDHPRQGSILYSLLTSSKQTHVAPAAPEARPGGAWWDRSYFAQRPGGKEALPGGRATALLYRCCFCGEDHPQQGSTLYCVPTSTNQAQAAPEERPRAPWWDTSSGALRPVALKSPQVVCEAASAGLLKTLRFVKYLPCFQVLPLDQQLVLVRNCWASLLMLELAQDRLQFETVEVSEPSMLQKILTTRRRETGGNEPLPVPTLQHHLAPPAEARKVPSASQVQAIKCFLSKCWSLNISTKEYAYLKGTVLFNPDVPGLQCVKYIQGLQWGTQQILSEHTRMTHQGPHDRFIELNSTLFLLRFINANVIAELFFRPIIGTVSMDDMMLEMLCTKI

[11] = target: T2, Oxysterols receptor LXR-beta (Homo sapiens, UniProt P55055); format: functional, cell-based;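 further: Cell-based luminescence dose-response assay of agonist activity at LXR, run as a confirmatory counterscreen to a daf-12 agonist screen; agonist potency from rising luciferase signal of a Gal4-LXR reporter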
T2 sequence (P55055 whole entry): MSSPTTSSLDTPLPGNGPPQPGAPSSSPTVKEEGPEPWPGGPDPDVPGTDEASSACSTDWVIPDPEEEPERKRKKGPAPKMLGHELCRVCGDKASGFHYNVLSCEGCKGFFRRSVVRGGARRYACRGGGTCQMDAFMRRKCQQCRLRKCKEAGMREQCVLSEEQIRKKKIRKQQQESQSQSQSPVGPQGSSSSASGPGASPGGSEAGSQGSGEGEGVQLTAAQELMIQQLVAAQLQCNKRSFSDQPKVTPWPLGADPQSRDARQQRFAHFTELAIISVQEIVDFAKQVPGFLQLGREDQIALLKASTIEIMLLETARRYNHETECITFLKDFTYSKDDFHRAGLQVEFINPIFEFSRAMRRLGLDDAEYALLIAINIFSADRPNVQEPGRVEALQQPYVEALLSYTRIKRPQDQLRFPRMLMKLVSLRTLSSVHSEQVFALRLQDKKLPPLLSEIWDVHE

cells [12] = assay: cells
[13] = Luminescence-based cell-based high throughput dose response assay to identify activators of the DAF-12 from the parasite S. stercoralis (ssDAF-12).; format: functional
[14] = target: T2, Oxysterols receptor LXR-beta; assay: LXR agonists, Gal4 luciferase reporter, dose response, counter-screen for ssDAF-12 agonist project, cell-based, luminescence, HEK293, S. stercoralis campaign (AID 720737); format: functional; details: read-out: IC50 (the source's name)
[15] = growth inhibition of yeast DHODH-expressing 3D7 parasites – SYBR Green, dry powder samples, dose response (AID 1159570); format: functional, cell-based;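 further: parasite growth measured after 72 hours of compound exposure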
[16] = P. falciparum Dd2 growth inhibitors, dose response, SYBR Green, cherry-picked samples (AID 1159567); format: functional, cell-based
[17] = Dd2 malaria parasite growth inhibition potency – SYBR Green, dry powder samples, dose response (AID 1159566); format: functional, cell-based;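 further: potency for growth inhibition with lower SYBR green DNA signal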
[18] = growth inhibition of PfATP4-mutant resistant parasites – NITD609-resistant line, SYBR Green, dry powder, dose response (AID 1159571); format: functional, cell-based;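 further: parasites synchronized at ring stage by sorbitol before testing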

Protein Wnt-3a, sequence (P27467 whole entry): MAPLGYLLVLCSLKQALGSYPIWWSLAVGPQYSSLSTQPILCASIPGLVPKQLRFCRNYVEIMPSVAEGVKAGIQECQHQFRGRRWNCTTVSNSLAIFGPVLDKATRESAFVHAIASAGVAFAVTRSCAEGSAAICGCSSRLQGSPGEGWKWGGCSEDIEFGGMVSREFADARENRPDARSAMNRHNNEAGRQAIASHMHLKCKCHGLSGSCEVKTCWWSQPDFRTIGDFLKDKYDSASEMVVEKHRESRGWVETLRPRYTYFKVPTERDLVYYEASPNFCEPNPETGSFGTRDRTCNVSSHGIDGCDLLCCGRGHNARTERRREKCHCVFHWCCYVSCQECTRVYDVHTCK
Mannose-6-phosphate isomerase, sequence (P34949 whole entry): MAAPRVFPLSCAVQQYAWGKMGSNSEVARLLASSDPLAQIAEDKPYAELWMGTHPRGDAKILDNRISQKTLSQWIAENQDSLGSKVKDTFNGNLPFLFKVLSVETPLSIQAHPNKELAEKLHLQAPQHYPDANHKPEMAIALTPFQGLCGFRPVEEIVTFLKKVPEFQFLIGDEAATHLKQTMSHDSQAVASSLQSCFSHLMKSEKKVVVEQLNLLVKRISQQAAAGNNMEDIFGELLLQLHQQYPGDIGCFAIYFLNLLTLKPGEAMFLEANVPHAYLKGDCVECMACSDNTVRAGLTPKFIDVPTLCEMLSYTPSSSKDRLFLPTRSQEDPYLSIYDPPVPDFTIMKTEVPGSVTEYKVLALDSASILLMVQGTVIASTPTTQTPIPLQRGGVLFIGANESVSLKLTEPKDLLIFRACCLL
Glutathione-S-transferase, sequence (Q26513 whole entry): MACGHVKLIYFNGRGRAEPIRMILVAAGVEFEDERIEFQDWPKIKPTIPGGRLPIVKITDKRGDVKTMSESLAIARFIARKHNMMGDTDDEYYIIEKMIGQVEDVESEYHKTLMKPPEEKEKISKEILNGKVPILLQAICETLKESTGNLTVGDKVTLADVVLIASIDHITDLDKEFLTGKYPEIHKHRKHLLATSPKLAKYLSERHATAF

COc1ccc(NC(=O)N2c3ccc(OC)cc3C(C)=CC2(C)C)cc1
IC50 [1]: > 50 µM (not active)
CC50 [2]: > 40 µM (active)
IC50 [3]: > 100 µM (active)

N#C[C@@H]1[C@H](c2ccccc2)[C@H](CO)N1C(=O)Nc1cccc(F)c1
AC50 [4]: 968 nM (active)

CCN(CC)S(=O)(=O)c1ccc(S(=O)(=O)Nc2c(C)nn(C)c2C)cc1
AC50 [5]: 2.24 µM (active)
AC50 [6]: 36.6 µM (active)
AC50 [7]: 27.4 µM (active)
IC50 (Protein Wnt-3a): 8.16 µM (active)
AC50 [8]: 1.06 µM (active)

C[C@@H]1CN([C@H](C)CO)C(=O)c2cc(NC(=O)Nc3ccc4c(c3)OCO4)ccc2O[C@@H](C)CCCCO[C@H]1CN(C)S(=O)(=O)c1ccccc1
AC50 [4]: 2220 nM (active)

O=C(Nc1ccccn1)c1sc2cccc(F)c2c1Cl
IC50 (cells [9]): > 67.6 µM (inactive)
IC50 [10]: > 834 nM (active)
EC50 [11]: > 67.6 µM (inactive)
EC50 (cells [12]): > 67.6 µM (inactive)

C(=Cc1c[nH]c2ccccc12)c1nccc2ccccc12
IC50 [13]: > 67.6 µM (inactive)
EC50 [14]: > 67.6 µM (inactive)
EC50 [11]: > 67.4 µM (inactive)
EC50 (cells [12]): > 67.4 µM (inactive)

COc1ccc2c3c(n(C)c2c1)[C@@H](CO)N(C(=O)c1ccc(F)cc1)CC31CN(C(=O)Nc2ccc(F)cc2)C1
AC50 [15]: 1.26 µM (active)
AC50 [16]: 1.79 µM (active)
AC50 [17]: 1.22 µM (active)
AC50 [18]: 999 nM (active)
